Results taken from article PMC9106635, “Stimulation of the atypical chemokine receptor 3 (ACKR3) by a small-molecule agonist attenuates fibrosis in a preclinical liver but not lung injury model” (Cellular and Molecular Life Sciences: CMLS, 2022).
pIC50: −log10 of the molar value.

Columns and labels:
[1] = test system: mouse CXCL12 plasma levels; assay: Mouse CXCL12 plasma determination (Bio-Plex); type: in vivo
Protocol: CXCL12 plasma levels were determined using Bio-Plex Pro Mouse Chemokine SDF-1a/CXCL12 (Bio-Rad) according to the manufacturer’s protocol. Prior to the assay mouse plasma samples were centrifuged for 15 min at 1000×g at 4 °C to remove any particulates. A four-fold dilution series of mouse CXCL12, blank samples and 1:5 diluted plasma samples were prepared. A 1:1 mixture of magnetic beads (50 µL/well) and sample (50 µL/well) was added to the 96-well assay plate, which was then sealed and incubated (30 min at RT) on a plate shaker at 850 rpm protected from light. After washing three times with wash buffer 25 µL/well detection antibody was added and the plate was again incubated as described above. The plate was again washed three times (100 µL/well wash buffer) followed by the addition of streptavidin-PE (50 µL/well). The plate was sealed and incubated (10 min at RT) at 850 rpm protected from light. Finally, the plate was again washed three times and the magnetic beads were resuspended in fresh assay buffer (152 µL/well). The plate was sealed and shaken for an additional 30 s before being analyzed with the Bioplex 200 System. Data were analyzed with the Bio-Plex Manager Software.

[2] = test system: fibrosis-related genes (liver mRNA); assay: nCounter analysis of 52 fibrosis-related genes in liver RNA; type: in vivo, mouse
Protocol: Total RNA was prepared from snap-frozen liver tissue (the lateral and medial right lobes and the caudate lobe; Supplementary Figure S1a) or lung tissue (cranial right lobe; Supplementary Figure S1b) after homogenization on ice in TRIZol. For quantitative qRT-PCR, cDNA was made from 0.5 μg of RNA using the GoScript reverse transcription system (Promega) according to the manufacturer's protocol. QRT-PCR was performed (for 40 cycles) with the Quantstudio3 Applied Biosystems (ABI) system using Sybr green (ABI) followed by melting curve analysis. Expression was calculated using the delta threshold cycle (ΔCT) method with Gapdh as reference gene (previously validated as stable house-keeping gene in the CCl4 model and in the bleomycin model, current study, not shown). Forward (F) and reverse (R) primer sequences were (5'-3'): […]; Col1a1: [NT]; Ackr3: [NT]; Cxcr4: [NT]; Golm1: [NT]; Lgals3: [NT]; Unc93b1: [NT]; Slc15a3: [NT]; Sec24d: [NT]; Cxcl10: [NT]; and […] Data are expressed as mean ± sem. For NanoString nCounter (NanoString, USA) analysis on liver RNA, a custom-designed panel of 52 fibrosis-related probes was used (the Nanostring probe list is shown in Supplementary Table 1). 100-500 ng of total RNA was hybridized according to the manufacturer's instructions. Data were normalized by scaling to a panel of four housekeeping genes (i.e., Hprt1, Actb, Ldh, Tbp; probes are listed in Supplementary Table 1) with a coefficient of variation of < 5% between conditions used for comparison. The scaled counts were base log2-transformed and data were expressed as fold-change versus the reference condition (CCl4 + 23% HPBCD). […] The resulting P-values were corrected for multiple testing with Benjamini-Hochberg to control the false discovery rate. P < 0.05 was considered as significant.

hCXCR4 = hCXCR4 (Homo sapiens, UniProt P61073); assay: Ca2+ mobilization assay, U87.CD4.CXCR4 cells, CXCL12-induced; type: cell-based; parameters: expressed in transfected cells; host or cells: U87.CD4.CXCR4; conditions: antagonism of CXCL12 response
Protocol: The calcium (Ca^2+) mobilization assay was described in detail before. Briefly, U87.CD4.CXCR4 or U87.CD4.CCR5 cells (2 × 10^4 cells per well in DMEM/10% FBS/0.01 M HEPES) were seeded in gelatin-coated (Sigma-Aldrich; 0.1% gelatin in DPBS) black-walled 96-well plates and incubated overnight at 37 °C and 5% CO2. The next day, cells were loaded with the fluorescent Ca^2+ indicator Fluo-2 acetoxymethyl (AM) ester (4 μM final concentration; Abcam) and incubated at RT in the dark for 45 min. Then, cells were washed with assay buffer (see above) and subsequently incubated with different concentrations of compound for ~ 10 min prior to addition of 6.25 nM CXCL12 (in case of CXCR4) or 6.4 nM CCL5 (in case of CCR5). Fluctuations in intracellular Ca^2+ levels were measured in real time by the FLIPR Tetra® device (Molecular Devices) in all 96 wells simultaneously. The response (Relative Light Units, RLUs) over baseline was calculated (ScreenWorks 4.0® software, Molecular Devices) by dividing the RLUs by a base line value measured just before addition of CXCL12 or CCL5, respectively. Inhibition of the Ca^2+ response was determined taking into account negative (i.e., untreated cells without stimulation) and positive (i.e., untreated cells stimulated with either CXCL12 or CCL5) control samples.

[3] = liver d28, CCl4 + compound 18a vs. CCl4 + 23% HPBCD

hCXCR4, sequence (P61073 whole entry): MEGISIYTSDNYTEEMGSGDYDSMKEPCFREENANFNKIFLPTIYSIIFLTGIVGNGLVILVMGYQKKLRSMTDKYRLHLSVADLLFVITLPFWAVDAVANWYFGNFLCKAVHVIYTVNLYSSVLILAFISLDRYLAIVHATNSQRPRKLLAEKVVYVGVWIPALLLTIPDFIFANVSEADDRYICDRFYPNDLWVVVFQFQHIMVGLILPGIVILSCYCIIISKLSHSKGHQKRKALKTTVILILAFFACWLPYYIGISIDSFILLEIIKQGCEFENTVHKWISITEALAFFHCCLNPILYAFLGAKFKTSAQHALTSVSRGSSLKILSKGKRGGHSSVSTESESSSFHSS

CCc1ccn2ccnc2c1N1CCCN(C(CC(N)=O)C2CCN(C(=O)C3CC4CCC3O4)CC2)CC1 (centres unmarked) [compound 18a]
increase of plasma CXCL12-levels ([1]; liver fibrosis model, day 7, 15 mg/kg/dose SC BID): ~ threefold
plasma CXCL12 levels ([1]; liver fibrosis model, day 28, 15 mg/kg/dose SC BID): led to increased CXCL12 levels
plasma CXCL12 levels ([1]; lung fibrosis model, day 21, 15 mg/kg/dose SC BID, vs vehicle (23% HPBCD)): increased mouse CXCL12 plasma levels
number of the 52 fibrosis-related genes with significantly affected expression ([2]; CCl4-challenged livers, day 28): 8
Fold change Adamts2 mRNA [2, 3]: 1.15
Fold change Anxa3 mRNA [2, 3]: 0.85
Fold change Arhgap25 mRNA [2, 3]: 0.87
Fold change Arl11 mRNA [2, 3]: 1.09
Fold change Arpc1b mRNA [2, 3]: 1.04
Fold change Axl mRNA [2, 3]: 0.96
Fold change C1qb mRNA [2, 3]: 0.92
Fold change Capg mRNA [2, 3]: 0.85
Fold change Ccr2 mRNA [2, 3]: 0.96
Fold change Ccr5 mRNA [2, 3]: 0.86
Fold change Ccr9 mRNA [2, 3]: 1.04
Fold change Cd68 mRNA [2, 3]: 0.90
Fold change Cd86 mRNA [2, 3]: 0.88
Fold change Clec4n mRNA [2, 3]: 0.77
Fold change Clec7a mRNA [2, 3]: 1.13
Fold change Col3a1 mRNA [2, 3]: 1.40
Fold change Col4a2 mRNA [2, 3]: 0.92
Fold change Col5a1 mRNA [2, 3]: 0.84
Fold change Cxcl10 mRNA [2, 3]: 0.74
Fold change Cxcl16 mRNA [2, 3]: 1.03
Fold change Eln mRNA [2, 3]: 1.25
Fold change Enc1 mRNA [2, 3]: 1.09
Fold change Fxyd5 mRNA [2, 3]: 0.96
Fold change Gdf15 mRNA [2, 3]: 1.12
Fold change Golm1 mRNA [2, 3]: 1.46
Fold change Il1rn mRNA [2, 3]: 0.76
Fold change Laptm5 mRNA [2, 3]: 0.90
Fold change Lgals3 mRNA [2, 3]: 0.58
Fold change Lilrb4 mRNA [2, 3]: 0.94
Fold change Lox mRNA [2, 3]: 1.24
Fold change Loxl2 mRNA [2, 3]: 1.01
Fold change Ly86 mRNA [2, 3]: 1.15
Fold change Mmp9 mRNA [2, 3]: 1.13
Fold change Ms4a6a mRNA [2, 3]: 1.20
Fold change Myo1f mRNA [2, 3]: 0.90
Fold change Nckap1l mRNA [2, 3]: 0.97
Fold change Pld4 mRNA [2, 3]: 0.93
Fold change Plod2 mRNA [2, 3]: 1.13
Fold change Rassf4 mRNA [2, 3]: 0.93
Fold change Sdcbp mRNA [2, 3]: 1.08
Fold change Sec24d mRNA [2, 3]: 1.22
Fold change Serpine1 mRNA [2, 3]: 0.22
Fold change Sla mRNA [2, 3]: 1.00
Fold change Slc11a1 mRNA [2, 3]: 0.88
Fold change Slc15a3 mRNA [2, 3]: 0.81
Fold change Tgfb1 mRNA [2, 3]: 0.90
Fold change Thbs2 mRNA [2, 3]: 1.03
Fold change Timp1 mRNA [2, 3]: 1.09
Fold change Tnc mRNA [2, 3]: 0.84
Fold change Trem2 mRNA [2, 3]: 1.44
Fold change Unc93b1 mRNA [2, 3]: 0.81
pIC50 (hCXCR4): < 4.40
